This passage reports IC50 results from patent publication US20180148418A1, “AMIDO-SUBSTITUTED CYCLOHEXANE DERIVATIVES” (Bayer Pharma Aktiengesellschaft, priority 2015, published 2018).

The test system of assay [1] is wildtype Wnt signaling cascade. The assay can be described thus: HEK293 TOP assay (Super TopFlash luciferase reporter, Wnt-3a stimulated). The class given is cell-based. Particulars: Homo sapiens, HEK293, 16 h, HEK293 TOP reporter cells, Wnt3a at EC50, 16 hours. A digest of the protocol: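 HEK293 cells stably carrying Super TopFlash (TOP) run in parallel with FOP cells, 10000/well plated 24 h ahead, stimulated with recombinant human Wnt-3a. Compounds tested 50 μM to 15 nM in 3.16-fold steps in CAFTY buffer pH 7.4 with 2 mM Ca^2+ and 0.01% BSA; luciferase read-out.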

Assay [2] concerns HEK293 cells cotransfected with the FOP control vector. Put plainly: HEK293 FOP assay (control reporter with non-functional TCF elements). The format is cell-based. As to conditions: Homo sapiens, 16 hours. A digest of the protocol:
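Stable HEK293 line carrying FOP control reporter (randomized non-functional TCF sites, with pcDNA3), Geneticin-selected, plated 24 h before assay. Stimulated with recombinant human Wnt-3a (2500-5 ng/ml) and compounds 50 μM–15 nM (3.16-fold steps) in CAFTY buffer pH 7.4 with 2 mM Ca2+, 0.01% BSA, run parallel to TOP line.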

The next assay has as its target T1, TNKS2 (Homo sapiens, UniProt Q9H2K2).
T1 construct: purchased BPS Bioscience, San Diego, USA 80572 (TNKS2 Histone Ribosylation Assay Kit)
T1 sequence (Q9H2K2 1-1166): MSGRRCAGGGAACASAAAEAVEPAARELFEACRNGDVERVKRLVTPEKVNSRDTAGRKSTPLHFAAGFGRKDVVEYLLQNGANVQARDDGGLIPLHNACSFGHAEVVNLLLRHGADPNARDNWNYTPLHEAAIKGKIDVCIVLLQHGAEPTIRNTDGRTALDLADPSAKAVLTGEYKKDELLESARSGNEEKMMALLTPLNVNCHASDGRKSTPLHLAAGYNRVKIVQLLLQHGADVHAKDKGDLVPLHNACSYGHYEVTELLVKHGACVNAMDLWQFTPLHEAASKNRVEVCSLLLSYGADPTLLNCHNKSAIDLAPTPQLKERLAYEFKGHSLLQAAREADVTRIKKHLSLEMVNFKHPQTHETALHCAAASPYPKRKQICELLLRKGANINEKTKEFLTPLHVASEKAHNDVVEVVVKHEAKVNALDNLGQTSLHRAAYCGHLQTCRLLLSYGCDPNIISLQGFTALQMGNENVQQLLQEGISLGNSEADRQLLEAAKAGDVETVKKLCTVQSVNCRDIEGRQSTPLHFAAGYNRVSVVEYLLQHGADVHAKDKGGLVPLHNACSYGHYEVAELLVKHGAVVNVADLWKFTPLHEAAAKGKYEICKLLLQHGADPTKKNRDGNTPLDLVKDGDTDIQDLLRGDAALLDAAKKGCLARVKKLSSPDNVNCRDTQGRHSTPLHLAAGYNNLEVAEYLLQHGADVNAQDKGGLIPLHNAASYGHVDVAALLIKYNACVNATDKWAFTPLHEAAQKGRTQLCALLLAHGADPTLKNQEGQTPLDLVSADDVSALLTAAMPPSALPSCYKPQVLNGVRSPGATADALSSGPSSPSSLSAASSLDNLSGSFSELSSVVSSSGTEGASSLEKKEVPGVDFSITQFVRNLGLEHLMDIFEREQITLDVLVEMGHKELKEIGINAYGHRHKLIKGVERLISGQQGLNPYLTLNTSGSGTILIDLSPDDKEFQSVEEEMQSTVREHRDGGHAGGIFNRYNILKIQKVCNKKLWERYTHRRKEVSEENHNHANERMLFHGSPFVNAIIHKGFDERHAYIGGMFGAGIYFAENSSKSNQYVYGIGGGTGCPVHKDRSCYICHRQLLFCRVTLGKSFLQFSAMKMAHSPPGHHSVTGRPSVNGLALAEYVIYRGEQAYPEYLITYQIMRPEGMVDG
The assay can be described thus: TNKS2 Assay B (auto-parsylation, [3H]-NAD+ SPA). The class given is biochemical. Particulars: 6 nM TNKS2, auto-parsylation, over night at room temperature.

pIC50: −log10 of the molar value.

Consider `O=C(N[C@H]1CC[C@H](C(=O)Nc2ccc(F)cc2Cl)CC1)c1c[nH]c2ccccc12` [Example 252, N-{trans-4-[(2-chloro-4-fluorophenyl)carbamoyl]cyclohexyl}-1H-indole-3-carboxamide], for which the results for the pIC50 (in assay [1]; in assay [2]; against TNKS2) were at most 4.30, at most 4.30 and under 5.00, respectively.

For `O=C(N[C@H]1CC[C@H](C(=O)Nc2ccc(F)cc2Cl)CC1)c1n[nH]c2ccccc12` [Example 253, N-{trans-4-[(2-chloro-4-fluorophenyl)carbamoyl]cyclohexyl}-1H-indazole-3-carboxamide], the pIC50 (commonly the IC50 on a negative log10 scale, so that one unit is a factor of ten) in assay [1] was 4.70; in assay [2], 4.72; against TNKS2, under 5.00.

As for `O=C(N[C@H]1CC[C@H](C(=O)Nc2ccc(F)cc2Cl)CC1)c1n[nH]c2ccc(F)cc12` [Example 254, N-{trans-4-[(2-chloro-4-fluorophenyl)carbamoyl]cyclohexyl}-5-fluoro-1H-indazole-3-carboxamide], the figures for the pIC50 (in assay [1]; in assay [2]; on TNKS2) were 5.00, at most 4.30 and under 5.00, respectively.

Regarding `O=C(N[C@H]1CC[C@H](C(=O)Nc2ccc(F)cc2Cl)CC1)c1c(Cl)nc2ccccn12` [Example 255, 2-chloro-N-{trans-4-[(2-chloro-4-fluorophenyl)carbamoyl]cyclohexyl}imidazo[1,2-a]pyridine-3-carboxamide], the pIC50 in assay [1] is at most 4.30; in assay [2], at most 4.30; on TNKS2, under 5.00.

As for `NC(=O)c1nc[nH]c1C(=O)N[C@H]1CC[C@@]2(CCN(c3ccccc3Cl)C2=O)CC1` [Example 261, N^5-[(trans)-2-(2-chlorophenyl)-1-oxo-2-azaspiro[4.5]dec-8-yl]-1H-imidazole-4,5-dicarboxamide], the values for the pIC50 (in assay [1]; in assay [2]; on TNKS2) were 8.34, at most 4.30 and 7.77, respectively.

In the case of `O=C(N[C@H]1CC[C@@]2(CCN(c3ccccc3Cl)C2=O)CC1)c1[nH]cnc1C(=O)N1CC(F)C1` [Example 262, N-[(trans)-2-(2-chlorophenyl)-1-oxo-2-azaspiro[4.5]dec-8-yl]-4-[(3-fluoroazetidin-1-yl)carbonyl]-1H-imidazole-5-carboxamide], the values for the pIC50 (in assay [1]; in assay [2]; against TNKS2) were 10.10, at most 4.30 and 8.15, respectively.

As to `O=C(N[C@H]1CC[C@@]2(CCN(c3ccccc3Cl)C2=O)CC1)c1[nH]cnc1C(=O)N1CC2(COC2)C1` [Example 263, N-[(trans)-2-(2-chlorophenyl)-1-oxo-2-azaspiro[4.5]dec-8-yl]-4-(2-oxa-6-azaspiro[3.3]hept-6-ylcarbonyl)-1H-imidazole-5-carboxamide], the figures for the negative-log IC50 (pIC50) (in assay [1]; in assay [2]; against TNKS2) were 8.57, at most 4.30 and 7.96, respectively.

`O=C(N[C@H]1CC[C@@]2(CCN(c3ccccc3Cl)C2=O)CC1)c1n[nH]c2cccnc12` [Example 272, N-[(trans)-2-(2-chlorophenyl)-1-oxo-2-azaspiro[4.5]dec-8-yl]-1H-pyrazolo[4,3-b]pyridine-3-carboxamide]: the figures for the pIC50 (in assay [1]; in assay [2]; against TNKS2) were 6.70, at most 4.30 and 6.19, respectively.

Consider `Cc1ccnc2c(C(=O)N[C@H]3CC[C@@]4(CCN(c5ccccc5Cl)C4=O)CC3)cnn12` [Example 273, N-[(trans)-2-(2-chlorophenyl)-1-oxo-2-azaspiro[4.5]dec-8-yl]-7-methylpyrazolo[1,5-a]pyrimidine-3-carboxamide], for which the values for the negative logarithm of the IC50 (pIC50) (in assay [1]; in assay [2]; on TNKS2) were 8.72, at most 4.30 and 7.96, respectively.

In the case of `O=C(N[C@H]1CC[C@@]2(CCN(c3ccccc3Cl)C2=O)CC1)c1c[nH]c2cccnc12` [Example 274, N-[(trans)-2-(2-chlorophenyl)-1-oxo-2-azaspiro[4.5]dec-8-yl]-1H-pyrrolo[3,2-b]pyridine-3-carboxamide], the pIC50 in assay [1] was 8.55; in assay [2], 4.42; against TNKS2, 7.15.

Consider `O=C(N[C@H]1CC[C@@]2(CCN(c3cccc(Cl)c3)C2=O)CC1)c1c[nH]c2cccnc12` [Example 275, N-[(trans)-2-(3-chlorophenyl)-1-oxo-2-azaspiro[4.5]dec-8-yl]-1H-pyrrolo[3,2-b]pyridine-3-carboxamide], for which the negative logarithm of the IC50 (pIC50) in assay [1] is 6.22; in assay [2], 4.96; against TNKS2, 6.52.

In the case of `CN1CCN(C(=O)c2nc[nH]c2C(=O)N[C@H]2CC[C@@]3(CCN(c4cccc(Cl)c4)C3=O)CC2)CC1` [Example 283, N-[(trans)-2-(3-chlorophenyl)-1-oxo-2-azaspiro[4.5]dec-8-yl]-4-[(4-methylpiperazin-1-yl)carbonyl]-1H-imidazole-5-carboxamide], the figures for the pIC50 (in assay [1]; in assay [2]; on TNKS2) were 6.36, 4.70 and 5.37, respectively.

Consider `O=C(NCCN1CCOCC1)c1nc[nH]c1C(=O)N[C@H]1CC[C@@]2(CCN(c3cccc(Cl)c3)C2=O)CC1` [Example 287, N^5-[(trans)-2-(3-chlorophenyl)-1-oxo-2-azaspiro[4.5]dec-8-yl]-N^4-[2-(morpholin-4-yl)ethyl]-1H-imidazole-4,5-dicarboxamide], for which the pIC50 is 7.16 in assay [1], at most 4.30 in assay [2] and 7.68 against TNKS2.

For `Cc1cc(N2CC[C@]3(CC[C@@H](NC(=O)c4[nH]cnc4C(N)=O)CC3)C2=O)c(Cl)cc1F` [Example 291, N^5-[(trans)-2-(2-chloro-4-fluoro-5-methylphenyl)-1-oxo-2-azaspiro[4.5]dec-8-yl]-1H-imidazole-4,5-dicarboxamide], the negative-log IC50 (pIC50) in assay [1] was 8.31; in assay [2] it was at most 4.30; against TNKS2, 8.07.

Turning to `Cc1cc(N2CC[C@]3(CC[C@@H](NC(=O)c4[nH]cnc4C(=O)N4CC(F)C4)CC3)C2=O)c(Cl)cc1F` [Example 292, N-[(trans)-2-(2-chloro-4-fluoro-5-methylphenyl)-1-oxo-2-azaspiro[4.5]dec-8-yl]-4-[(3-fluoroazetidin-1-yl)carbonyl]-1H-imidazole-5-carboxamide], the pIC50 is 8.80 in assay [1], 5.00 in assay [2] and 8.06 at TNKS2.

For the compound `Cc1cc(N2CC[C@]3(CC[C@@H](NC(=O)c4[nH]cnc4C(=O)N4CC5(COC5)C4)CC3)C2=O)c(Cl)cc1F` [Example 293, N-[(trans)-2-(2-chloro-4-fluoro-5-methylphenyl)-1-oxo-2-azaspiro[4.5]dec-8-yl]-4-(2-oxa-6-azaspiro[3.3]hept-6-ylcarbonyl)-1H-imidazole-5-carboxamide], the results for the pIC50 (in assay [1]; in assay [2]; against TNKS2) were 8.80, at most 4.30 and 8.10, respectively.

Regarding `Cc1cc(N2CC[C@]3(CC[C@@H](NC(=O)c4[nH]cnc4C(=O)N4CCN(C)CC4)CC3)C2=O)c(Cl)cc1F` [Example 294, N-[(trans)-2-(2-chloro-4-fluoro-5-methylphenyl)-1-oxo-2-azaspiro[4.5]dec-8-yl]-4-[(4-methylpiperazin-1-yl)carbonyl]-1H-imidazole-5-carboxamide], the pIC50 in assay [1] was 7.34; in assay [2], at most 4.30; against TNKS2, 6.82.

As for `Cc1cc(N2CC[C@]3(CC[C@@H](NC(=O)c4[nH]cnc4C(=O)NC4CC4)CC3)C2=O)c(Cl)cc1F` [Example 295, N^5-[(trans)-2-(2-chloro-4-fluoro-5-methylphenyl)-1-oxo-2-azaspiro[4.5]dec-8-yl]-N^4-cyclopropyl-1H-imidazole-4,5-dicarboxamide], the pIC50 in assay [1] is 9.00; in assay [2], 4.92; against TNKS2, 8.04.
